Experimental data published in PMC6010122 (Journal of Enzyme Inhibition and Medicinal Chemistry, 2017).
Like-named read-outs stand apart in the source and are kept apart here.

How the values were obtained:
K562R (Q252H) cells = assay: Cellular antiproliferation assay (CCK-8), imatinib-resistant K562R (Q252H); format: cell-based; settings: Homo sapiens, K-562R, read-out: Antiproliferation IC50, K562R (Q252H)
Ba/F3^T315I cells = format: cell-based, murine; settings: Mus musculus, read-out: Antiproliferation IC50, Ba/F3^T315I
Ba/F3^WT cells = assay: Cellular antiproliferation assay (CCK-8), Ba/F3 expressing Bcr-Abl^WT; format: cell-based, murine; settings: Mus musculus, read-out: Antiproliferation IC50, Ba/F3^WT
K562 xenograft [1] = settings: mouse, in vivo, po, 10 mg/kg/day
K562 cells = assay: Cellular antiproliferation assay (CCK-8), K562; format: cell-based; settings: Homo sapiens, read-out: Antiproliferation IC50, K562
[2] = test system: activation of Bcr-Abl, Crkl and STAT5 in K562 CML cells; assay: Western blot of Bcr-Abl signaling in K562 cells; format: cell-based, human; settings: 4.0 h treatment
Description: The Western blot analysis was carried out by following the protocol described previously. Briefly, after the indicated treatment, cell lysates were collected, dissolving cells in 1× SDS sample lysis buffer. After being sonicated and boiled, the supernatant of the cell lysate was used for Western blot analysis. Cell lysates were loaded to 8–12% SDS-PAGE and separated by electrophoresis. Separated proteins were then electrically transferred to a PVDF film. After being blocked with 1× TBS containing 0.1% Tween-20, and 5% nonfat milk, the film was incubated with corresponding primary antibody followed by HRP-conjugated secondary antibody. The protein lanes were visualized using ECL Western Blotting Detection Kit (GE Healthcare, Piscataway, NJ).
Figure 3. […] Cells were treated with GZD856 at the indicated concentrations for 4.0 h, and whole cell lysates were then subjected to Western blot analyses. The results represent three independent experiments.

K562 xenograft [3] = assay: Subcutaneous K562 xenograft model of human CML
[4] = test system: HFL-1 (human embryonic lung fibroblasts); design: method as in PMID 26940138; settings: human embryonic lung fibroblasts ref 26; read-out: Antiproliferative IC50, HFL-1 non-cancer cells; cited from earlier work
Bcr-Abl^WT = Bcr-Abl^WT (Homo sapiens, UniProt P00519); format: biochemical
U937 cells = assay: Cellular antiproliferation assay (CCK-8), U937; format: cell-based; settings: Homo sapiens, read-out: Antiproliferation IC50, U937
MOLT-4 cells = assay: Cellular antiproliferation assay (CCK-8), MOLT-4; format: cell-based; settings: Homo sapiens, read-out: Antiproliferation IC50, MOLT-4

Sequence of Bcr-Abl^WT (P00519 27-1130): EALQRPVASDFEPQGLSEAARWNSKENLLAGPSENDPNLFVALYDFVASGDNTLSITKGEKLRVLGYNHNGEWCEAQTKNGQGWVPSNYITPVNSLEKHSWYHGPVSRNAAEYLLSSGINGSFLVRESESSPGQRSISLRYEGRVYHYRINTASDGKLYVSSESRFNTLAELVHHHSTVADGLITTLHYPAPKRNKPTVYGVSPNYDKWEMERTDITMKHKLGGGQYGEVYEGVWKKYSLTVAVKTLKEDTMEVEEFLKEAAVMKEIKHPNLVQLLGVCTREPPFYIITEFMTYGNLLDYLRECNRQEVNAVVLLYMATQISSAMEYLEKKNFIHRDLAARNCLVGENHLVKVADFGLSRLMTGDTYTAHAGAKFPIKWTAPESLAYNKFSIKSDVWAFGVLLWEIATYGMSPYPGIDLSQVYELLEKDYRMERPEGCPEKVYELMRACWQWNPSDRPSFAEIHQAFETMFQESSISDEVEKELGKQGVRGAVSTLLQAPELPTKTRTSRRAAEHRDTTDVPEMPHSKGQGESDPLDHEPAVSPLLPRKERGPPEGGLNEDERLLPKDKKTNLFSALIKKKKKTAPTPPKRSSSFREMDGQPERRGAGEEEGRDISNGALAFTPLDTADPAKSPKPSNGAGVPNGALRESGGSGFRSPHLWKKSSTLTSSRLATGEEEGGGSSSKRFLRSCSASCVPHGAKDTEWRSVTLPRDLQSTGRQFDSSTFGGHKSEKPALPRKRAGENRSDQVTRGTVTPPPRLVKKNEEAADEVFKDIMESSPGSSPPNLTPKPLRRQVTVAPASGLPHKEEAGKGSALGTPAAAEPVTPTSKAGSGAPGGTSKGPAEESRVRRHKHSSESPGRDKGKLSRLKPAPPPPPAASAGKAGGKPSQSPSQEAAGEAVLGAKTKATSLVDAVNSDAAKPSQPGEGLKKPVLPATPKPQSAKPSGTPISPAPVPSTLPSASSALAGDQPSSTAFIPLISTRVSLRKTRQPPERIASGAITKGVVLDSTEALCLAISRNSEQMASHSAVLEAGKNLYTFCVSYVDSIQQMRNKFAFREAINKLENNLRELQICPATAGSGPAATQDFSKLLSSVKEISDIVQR

For `Cc1ccc(C(=O)Nc2ccc(CN3CCN(C)CC3)c(C(F)(F)F)c2)cc1C#Cc1cnc2ccnn2c1` [GZD856, 4-Methyl-N-(4-((4-methylpiperazin-1-yl)methyl)-3-(trifluoromethyl)phenyl)-3-(pyrazolo[1,5-a]pyrimidin-6-ylethynyl)benzamide], the IC50 (K562R (Q252H) cells; CCK-8, 72 h) was 67 nM, the IC50 (Ba/F3^T315I cells; BaF3, CCK-8, 72 h) was 10.8 nM and the IC50 (Ba/F3^WT cells; BaF3, CCK-8, 72 h) was 0.64 nM. For the same molecule, the Tolerability during treatment (K562 xenograft [1]) was “well tolerated with no mortality”, the IC50 (K562 cells; K562, CCK-8, 72 h) was 2.2 nM and the “Suppression of activation of Bcr-Abl and downstream Crkl and STAT5” value [2] was “efficiently suppressed the activation”. The “Body loss relative to vehicle-matched controls” value (K562 xenograft [3]; K562 xenograft mice, oral 10 mg/kg/day, during the treatment) was < 5%, the “Tumor recurrence after cessation of treatment” value (K562 xenograft [3]; K562 xenograft, 10 mg/kg/day, 16 days of dosing, following 7 days) was “no sign of tumor recurrence” and the “Antitumor effect on tumor” value (K562 xenograft [3]; K562 xenograft, oral 10 mg/kg/day, after 8 days of treatment) was “almost completely eradicated the tumor”. The IC50 [4] was 6780 nM and the IC50 (Bcr-Abl^WT) was 19.9 nM.

In the case of `Cc1ccc(NC(=O)c2ccc(CN3CCN(C)CC3)cc2)cc1Nc1nccc(-c2cccnc2)n1` [Imatinib, imatinib], the “Antitumor effect on tumor” value (K562 xenograft [3]; K562 xenograft, oral 50 mg/kg/day) is reported as “only induced tumor stasis”.

Work on `Cc1cn(-c2cc(NC(=O)c3ccc(C)c(Nc4nccc(-c5cccnc5)n4)c3)cc(C(F)(F)F)c2)cn1` [Nilotinib] yielded an IC50 (K562R (Q252H) cells; 72 h) of 350 nM, an IC50 (Ba/F3^T315I cells; BaF3, 72 h) of 1460 nM and an IC50 (Ba/F3^WT cells; BaF3, 72 h) of 22 nM. The IC50 (U937 cells; U-937, 72 h) was 9520 nM, the IC50 (K562 cells; K562, 72 h) was 6.5 nM and the IC50 (MOLT-4 cells; MOLT-4, 72 h) was 20400 nM.

Work on `Cc1ccc(C(=O)Nc2ccc(CN3CCN(C)CC3)c(C(F)(F)F)c2)cc1C#Cc1cnc2cccnn12` [Ponatinib, 3-[2-(imidazo[1,2-b]pyridazin-3-yl)ethynyl]-4-methyl-N-{4-[(4-methyl-piperazin-1-yl)methyl]-3-(trifluoromethyl)phenyl}benzamide] yielded an IC50 (U937 cells; U-937, 72 h) of 1 nM, an IC50 (K562 cells; K562, 72 h) of 0.5 nM and an IC50 (MOLT-4 cells; MOLT-4, 72 h) of 7.8 nM.

Molecule `CC(=O)O[C@H]1C(=O)[C@@]2(C)[C@H]([C@H](OC(=O)c3ccccc3)[C@]3(O)C[C@H](OC(=O)[C@H](O)[C@@H](NC(=O)c4ccccc4)c4ccccc4)C(C)=C1C3(C)C)[C@]1(OC(C)=O)CO[C@@H]1C[C@@H]2O` [Taxol] has an IC50 (K562R (Q252H) cells; CCK-8, 72 h) of 7 nM, an IC50 (U937 cells; U-937, CCK-8, 72 h, negative for Bcr-Abl expression) of 2.3 nM and an IC50 (K562 cells; K562, CCK-8, 72 h) of 5.1 nM. The IC50 (MOLT-4 cells; MOLT-4, CCK-8, 72 h, negative for Bcr-Abl expression) was 2.7 nM.
